Patent US11427606B2, “Azithromycin derivatives containing a phosphonium ion as anticancer agents” (Rising Tide Foundation, priority 2017, dated 2022)

System: MDA-231 cancer cells
Experiment: Inhibition of proliferation assay: cell confluence (IncuCyte imaging)
Format: cell-based
Settings: compound at 10 uM; MDA-231 cells; IncuCyte images every 3 h over 4-5 d; relative confluence normalised to time zero
Excerpt: Inhibition of Proliferation Assay
The confluence value is a surrogate for cell proliferation and growth. The value is expressed as a percent confluence, which represents the fraction of culture dish-surface that is occupied by cells. As the number of cells in the dish increases over time due to proliferation, so will their coverage of that surface increase. Expansion of the cell population on the cell culture-dish surface and confluence have mostly a linear relationship until the cells on the plate surface begin to reach saturation or maximum density.
Confluence is determined based on image analysis. Image based software can identify objects in the image field base on changes to pixel density in a grey scale image. The software can then assign a mask to those pixels within the object. Objects can be ‘gated’ out based on size and shape. To determine cell confluence, images of cells are first masked as objects. The surface area of the image that is masked is measured and compared to the total surface area of the culture dish surface to obtain a percent confluence.
MDA-231 cancer cells were obtained from ATCC. Cells were cultured in Dulbecco's Modified Eagle Medium (DMEM) supplemented with 10% Fetal Bovine Serum (FBS), 2 mM Glutamax, 1 mM Non Essential Amino Acid (NEAA) solution and 1 mM sodium pyruvate. […] Final DMSO concentrations were […]. Images were acquired with an IncuCyte Live Cell Imaging microscopy (Essen Bioscience) at every 3 h under cell culture conditions with 10× objective over 4-5 d. Cell confluence was calculated from one field of view per well using the IncuCyte in-built algorithm. Relative confluence values were obtained by normalising each value to the time zero value in each sample.

SMILES	% Confluence [%]
CC[C@H]1OC(=O)[C@H](C)[C@@H](O)[C@H](C)[C@@H](O[C@@H]2O[C@H](C)C[C@H](N(C)C)[C@H]2O)[C@](C)(O)C[C@@H](C)CN(CCCCCCCC[P+](c2ccc(OC)cc2)(c2ccc(OC)cc2)c2ccc(OC)cc2)[C@H](C)[C@@H](O)[C@]1(C)O [Example 20]	14.8
CC[C@H]1OC(=O)[C@H](C)[C@@H](O)[C@H](C)[C@@H](O[C@@H]2O[C@H](C)C[C@H](N(C)C)[C@H]2O)[C@](C)(O)C[C@@H](C)CN(CCCCCCCC[P+](c2ccccc2)(c2ccccc2)c2ccc(N(C)C)cc2)[C@H](C)[C@@H](O)[C@]1(C)O.[I-] [Example 21]	89.9
CC[C@H]1OC(=O)[C@H](C)[C@@H](O[C@H]2C[C@@](C)(OC)[C@@H](O)[C@H](C)O2)[C@H](C)[C@@H](O[C@@H]2O[C@H](C)C[C@H](N(C)C)[C@H]2O)[C@](C)(O)C[C@@H](C)CN(C(=O)CCCCCCCCCCC[P+](C)(c2ccccc2)c2ccccc2)[C@H](C)[C@@H](O)[C@]1(C)O.[Cl-] [Example 22, {12-[(2R,3S,4R,5R,8R,10R,11R,12S,13S,14R)-11-{[(2S,3R,4S,6R)-4-(dimethylamino)-3-hydroxy-6-methyloxan-2-yl]oxy}-2-ethyl-3,4,10-trihydroxy-13-{[(2R,4R,5S,6S)-5-hydroxy-4-methoxy-4,6-dimethyloxan-2-yl]oxy}-3,5,8,10,12,14-hexamethyl-15-oxo-1-oxa-6-azacyclopentadecan-6-yl]-12-oxododecyl}(methyl)diphenylphosphonium chloride]	137
CC[C@H]1OC(=O)[C@H](C)[C@@H](O[C@H]2C[C@@](C)(OC)[C@@H](O)[C@H](C)O2)[C@H](C)[C@@H](O[C@@H]2O[C@H](C)C[C@H](N(C)C)[C@H]2O)[C@](C)(O)C[C@@H](C)CN(C(=O)CCCCCCCCCCC[PH](C)(C)c2ccccc2)[C@H](C)[C@@H](O)[C@]1(C)O [Example 23, {12-[(2R,3S,4R,5R,8R,10R,11R,12S,13S,14R)-11-{[(2S,3R,4S,6R)-4-(dimethylamino)-3-hydroxy-6-methyloxan-2-yl]oxy}-2-ethyl-3,4,10-trihydroxy-13-{[(2R,4R,5S,6S)-5-hydroxy-4-methoxy-4,6-dimethyloxan-2-yl]oxy}-3,5,8,10,12,14-hexamethyl-15-oxo-1-oxa-6-azacyclopentadecan-6-yl]-12-oxododecyl}dimethylphenylphosphonium chloride]	7.5
CC[C@H]1OC(=O)[C@H](C)[C@@H](O[C@H]2C[C@@](C)(OC)[C@@H](O)[C@H](C)O2)[C@H](C)[C@@H](O[C@@H]2O[C@H](C)C[C@H](N(C)C)[C@H]2O)[C@](C)(O)C[C@@H](C)CN(C(=O)CCCCCCCCCCC[P+](C)(C)C)[C@H](C)[C@@H](O)[C@]1(C)O.[Cl-] [Example 24, {12-[(2R,3S,4R,5R,8R,10R,11R,12S,13S,14R)-11-{[(2S,3R,4S,6R)-4-(dimethylamino)-3-hydroxy-6-methyloxan-2-yl]oxy}-2-ethyl-3,4,10-trihydroxy-13-{[(2R,4R,5S,6S)-5-hydroxy-4-methoxy-4,6-dimethyloxan-2-yl]oxy}-3,5,8,10,12,14-hexamethyl-15-oxo-1-oxa-6-azacyclopentadecan-6-yl]-12-oxododecyl}trimethylphosphonium chloride]	140
CC[C@H]1OC(=O)[C@H](C)[C@@H](O[C@H]2C[C@@](C)(OC)[C@@H](O)[C@H](C)O2)[C@H](C)[C@@H](O[C@@H]2O[C@H](C)C[C@H](N(C)C)[C@H]2O)[C@](C)(O)C[C@@H](C)CN(C(=O)CCCCCCC[P+](C)(C)C)[C@H](C)[C@@H](O)[C@]1(C)O.[Cl-] [Example 25, {8-[(2R,3S,4R,5R,8R,10R,11R,12S,13S,14R)-11-{[(2S,3R,4S,6R)-4-(dimethylamino)-3-hydroxy-6-methyloxan-2-yl]oxy}-2-ethyl-3,4,10-trihydroxy-13-{[(2R,4R,5S,6S)-5-hydroxy-4-methoxy-4,6-dimethyloxan-2-yl]oxy}-3,5,8,10,12,14-hexamethyl-15-oxo-1-oxa-6-azacyclopentadecan-6-yl]-8-oxooctyl}trimethylphosphonium chloride]	124
CC[C@H]1OC(=O)[C@H](C)[C@@H](O[C@H]2C[C@@](C)(OC)[C@@H](O)[C@H](C)O2)[C@H](C)[C@@H](O[C@@H]2O[C@H](C)C[C@H](N(C)C)[C@H]2O)[C@](C)(O)C[C@@H](C)CN(C(=O)CCCCCCC[P+](c2ccccc2)(c2ccccc2)c2cnn(C)c2)[C@H](C)[C@@H](O)[C@]1(C)O.[Cl-] [Example 27, {8-[(2R,3S,4R,5R,8R,10R,11R,12S,13S,14R)-11-{[(2S,3R,4S,6R)-4-(dimethylamino)-3-hydroxy-6-methyloxan-2-yl]oxy}-2-ethyl-3,4,10-trihydroxy-13-{[(2R,4R,5S,6S)-5-hydroxy-4-methoxy-4,6-dimethyloxan-2-yl]oxy}-3,5,8,10,12,14-hexamethyl-15-oxo-1-oxa-6-azacyclopentadecan-6-yl]-8-oxooctyl}(1-methyl-1H-pyrazol-4-yl)diphenylphosphonium chloride]	123
CC[C@H]1OC(=O)[C@H](C)[C@@H](O[C@H]2C[C@@](C)(OC)[C@@H](O)[C@H](C)O2)[C@H](C)[C@@H](O[C@@H]2O[C@H](C)C[C@H](N(C)C)[C@H]2O)[C@](C)(O)C[C@@H](C)CN(C(=O)CCCCCCCCCCC[P+](c2ccccc2)(c2ccccc2)c2cnn(C)c2)[C@H](C)[C@@H](O)[C@]1(C)O.[Cl-] [Example 28, {12-[(2R,3S,4R,5R,8R,10R,11R,12S,13S,14R)-11-{[(2S,3R,4S,6R)-4-(dimethylamino)-3-hydroxy-6-methyloxan-2-yl]oxy}-2-ethyl-3,4,10-trihydroxy-13-{[(2R,4R,5S,6S)-5-hydroxy-4-methoxy-4,6-dimethyloxan-2-yl]oxy}-3,5,8,10,12,14-hexamethyl-15-oxo-1-oxa-6-azacyclopentadecan-6-yl]-12-oxododecyl}(1-methyl-1H-pyrazol-4-yl)diphenylphosphonium chloride]	16
CC[C@H]1OC(=O)[C@H](C)[C@@H](O[C@H]2C[C@@](C)(OC)[C@@H](O)[C@H](C)O2)[C@H](C)[C@@H](O[C@@H]2O[C@H](C)C[C@H](N(C)C)[C@H]2O)[C@](C)(O)C[C@@H](C)CN(C(=O)CCCCCCCCCCC[PH](c2cc(C)cc(C)c2)(c2cc(C)cc(C)c2)c2cc(C)cc(C)c2)[C@H](C)[C@@H](O)[C@]1(C)O [Example 29, {12-[(2R,3S,4R,5R,8R,10R,11R,12S,13S,14R)-11-{[(2S,3R,4S,6R)-4-(dimethylamino)-3-hydroxy-6-methyloxan-2-yl]oxy}-2-ethyl-3,4,10-trihydroxy-13-{[(2R,4R,5S,6S)-5-hydroxy-4-methoxy-4,6-dimethyloxan-2-yl]oxy}-3,5,8,10,12,14-hexamethyl-15-oxo-1-oxa-6-azacyclopentadecan-6-yl]-12-oxododecyl}tris(3,5-dimethylphenyl)phosphonium chloride]	4.6
CC[C@H]1OC(=O)[C@H](C)[C@@H](O[C@H]2C[C@@](C)(OC)[C@@H](O)[C@H](C)O2)[C@H](C)[C@@H](O[C@@H]2O[C@H](C)C[C@H](N(C)C)[C@H]2O)[C@](C)(O)C[C@@H](C)CN(C(=O)CCCCCCCCCCC[PH](c2cccc(C)c2)(c2cccc(C)c2)c2cccc(C)c2)[C@H](C)[C@@H](O)[C@]1(C)O [Example 30, {12-[(2R,3S,4R,5R,8R,10R,11R,12S,13S,14R)-11-{[(2S,3R,4S,6R)-4-(dimethylamino)-3-hydroxy-6-methyloxan-2-yl]oxy}-2-ethyl-3,4,10-trihydroxy-13-{[(2R,4R,5S,6S)-5-hydroxy-4-methoxy-4,6-dimethyloxan-2-yl]oxy}-3,5,8,10,12,14-hexamethyl-15-oxo-1-oxa-6-azacyclopentadecan-6-yl]-12-oxododecyl}tris(3-methylphenyl)phosphonium chloride]	4.4
CC[C@H]1OC(=O)[C@H](C)[C@@H](O[C@H]2C[C@@](C)(OC)[C@@H](O)[C@H](C)O2)[C@H](C)[C@@H](O[C@@H]2O[C@H](C)C[C@H](N(C)C)[C@H]2O)[C@](C)(O)C[C@@H](C)CN(C(=O)CCCCCCCCCCC[PH](c2ccccc2)(c2ccccc2)C2COC2)[C@H](C)[C@@H](O)[C@]1(C)O [Example 32, {12-[(2R,3S,4R,5R,8R,10R,11R,12S,13S,14R)-11-{[(2S,3R,4S,6R)-4-(dimethylamino)-3-hydroxy-6-methyloxan-2-yl]oxy}-2-ethyl-3,4,10-trihydroxy-13-{[(2R,4R,5S,6S)-5-hydroxy-4-methoxy-4,6-dimethyloxan-2-yl]oxy}-3,5,8,10,12,14-hexamethyl-15-oxo-1-oxa-6-azacyclopentadecan-6-yl]-12-oxododecyl}(oxetan-3-yl)diphenylphosphonium chloride]	129
